Holding throughout (assay type): in vivo
Test [1] relates to Western Flower Thrips (Frankliniellla occidentalis (Pergande)). The experiment in a line: Test F: control of Western Flower Thrips on Soleil bean plant, contact and/or systemic, spray. The note with it: 50 ppm spray; 6 days; very good to excellent control; criterion is plant damage and/or 100% mortality. How it is done: (§1) Formulation and Spray Methodology for Tests A-F
(§2) Test compounds were formulated using a solution containing 10% acetone, 90% water and 300 ppm X-77® Spreader Lo-Foam Formula non-ionic surfactant containing alkylarylpolyoxyethylene, free fatty acids, glycols and isopropanol (Loveland Industries, Inc. Greeley, Colo., USA). The formulated compounds were applied in 1 mL of liquid through a SUJ2 atomizer nozzle with 1/8 JJ custom body (Spraying Systems Co. Wheaton, Ill., USA) positioned 1.27 cm (0.5 inches) above the top of each test unit. Test compounds were sprayed at the rates indicated, and each test was replicated three times.
For evaluating control of the Western Flower Thrips (Frankliniellla occidentalis (Pergande)) through contact and/or systemic means, the test unit consisted of a small open container with a 5-7-day-old Soleil bean plant inside.
Test compounds were formulated and sprayed at 250 and/or 50 ppm. After spraying, the test units were allowed to dry for 1 hour, and then 22-27 adult thrips were added to each unit. A black, screened cap was placed on top, and the test units were held for 6 days at 25° C. and 45-55% relative humidity.

Test [2] concerns sweetpotato whitefly (Bemisia tabaci (Gennadius)). The experiment in a line: whole plant or invertebrate. The settings on record: in Gossypium hirsutum, 312 h, 13 days; for mortality at 50 ppm: 50 ppm spray; for mortality at 250 ppm: 250 ppm spray. How it is done: as §1, §2
For evaluating control of the sweetpotato whitefly (Bemisia tabaci (Gennadius)) through contact and/or systemic means, the test unit consisted of a small open container with a 12-14-day-old cotton plant inside. Prior to the spray application, both cotyledons were removed from the plant, leaving one true leaf for the assay. Adult whiteflies were allowed to lay eggs on the plant and then were removed from the test unit. Cotton plants infested with at least 15 eggs were submitted to the test for spraying.
Test compounds were formulated and sprayed at 250 and/or 50 ppm. After spraying, the test units were allowed to dry for 1 hour. The cylinders were then removed, and the units were taken to a growth chamber and held for 13 days at 28° C. and 50-70% relative humidity. Each test unit was then visually assessed for insect mortality.

The test system of test [3] is green peach aphid (Myzus persicae (Sulzer)). Briefly: whole plant or invertebrate. The settings on record: in Raphanus sativus, 144 h, 6 days; for mortality at 50 ppm: 50 ppm spray; for mortality at 250 ppm: 250 ppm spray. How it is done: as §1, §2
For evaluating control of green peach aphid (Myzus persicae (Sulzer)) through contact and/or systemic means, the test unit consisted of a small open container with a 12-15-day-old radish plant inside. This was pre-infested by placing on a leaf of the test plant 30-40 aphids on a piece of leaf excised from a culture plant (cut-leaf method). The aphids moved onto the test plant as the leaf piece desiccated. After pre-infestation, the soil of the test unit was covered with a layer of sand.
Test compounds were formulated and sprayed at 250 and/or 50 ppm. After spraying of the formulated test compound, each test unit was allowed to dry for 1 hour and then a black, screened cap was placed on top. The test units were held for 6 days in a growth chamber at 19-21° C. and 50-70% relative humidity. Each test unit was then visually assessed for insect mortality.

In test [4] the test system is cotton melon aphid (Aphis gossypii (Glover)). The experiment in a line: whole plant or invertebrate. The note with it: 144 h, 6 days; for mortality at 50 ppm: 50 ppm spray; for mortality at 250 ppm: 250 ppm spray. The procedure: as §1, §2
For evaluating control of cotton melon aphid (Aphis gossypii (Glover)) through contact and/or systemic means, the test unit consisted of a small open container with a 6-7-day-old cotton plant inside. This was pre-infested with 30-40 insects on a piece of leaf according to the cut-leaf method, and the soil of the test unit was covered with a layer of sand.
Test compounds were formulated and sprayed at 250 and/or 50 ppm. After spraying, the test units were maintained in a growth chamber for 6 days at 19° C. and 70% relative humidity. Each test unit was then visually assessed for insect mortality.

As to `COC(CNC(=O)c1ccc(-c2ccc3nn(-c4cccnc4)cc3c2)c(Cl)c1)OC` [Compound 18], the “control efficacy: plant damage (30% or less plant damage and/or 100% mortality)” value in test [1] is recorded as at most 30%.
As a reminder, the mortality is the share of the test organisms that died. Higher therefore signals a strong lethal effect. In the case of `COC(CNC(=O)c1cccc(-c2ccc3nn(-c4cccnc4)cc3c2)c1)OC` [Compound 25, N-(2,2-dimethoxyethyl)-3-[2-(3-pyridinyl)-2H-indazol-5-yl]benzamide], the mortality at 50 ppm in test [2] is at least 50%; in test [3], at least 80%; in test [4], at least 80%. In addition, the values for the mortality at 250 ppm in test [2], in test [3] and in test [4] were at least 50%, at least 80% and at least 80%, respectively.
In test [3], `O=C(NCCO)c1cccc(-c2ccc3nn(-c4cccnc4)cc3c2)c1` [Compound 31, N-(2-hydroxyethyl)-3-[2-(3-pyridinyl)-2H-indazol-5-yl]benzamide] returned a mortality at 50 ppm of at least 80% and a mortality at 250 ppm of at least 80%. Besides, in test [4], the mortality at 50 ppm was at least 80% and the mortality at 250 ppm is at least 80%.
In the case of `O=C(NC1CCOCC1)c1csc(-c2ccc3nn(-c4cccnc4)cc3c2)n1` [Compound 64, 2-[2-(3-pyridinyl)-2H-indazol-5-yl]-N-(tetrahydro-2H-pyran-4-yl)-4-thiazolecarboxamide], the values for the mortality at 250 ppm in test [2], in test [3] and in test [4] were at least 50%, at least 80% and at least 80%, respectively. In addition, the mortality at 50 ppm in test [3] and in test [4] was at least 80% throughout.
Regarding `O=C(NCc1ncccn1)c1ncsc1-c1ccc2nn(-c3cccnc3)cc2c1` [Compound 78, 5-[2-(3-pyridinyl)-2H-indazol-5-yl]-N-(2-pyrimidinylmethyl)-4-thiazolecarboxamide], the mortality at 50 ppm in test [3] and in test [4] was at least 80% in each case. The compound further had a mortality at 250 ppm in test [3] of at least 80%.
`CNC(=O)C1(NC(=O)c2cc(-c3ccc4nn(-c5cccnc5)cc4c3)ccn2)CC1` [Compound 85, N-[1-[(methylamino)carbonyl]cyclopropyl]-4-[2-(3-pyridinyl)-2H-indazol-5-yl]-2-pyridinecarboxamide]: the mortality at 50 ppm in test [3] and in test [4] was at least 80% throughout.
Consider `NC(=O)C1(NC(=O)c2cc(-c3ccc4nn(-c5cccnc5)cc4c3)ccn2)CC1` [Compound 86, N-[1-(aminocarbonyl)cyclopropyl]-4-[2-(3-pyridinyl)-2H-indazol-5-yl]-2-pyridinecarboxamide], for which the mortality at 50 ppm in test [3] and in test [4] was at least 80% each time.
Regarding `CN(C)C(=O)C1(NC(=O)c2cc(-c3ccc4nn(-c5cccnc5)cc4c3)ccn2)CC1` [Compound 87, N-[1-[(dimethylamino)carbonyl]cyclopropyl]-4-[2-(3-pyridinyl)-2H-indazol-5-yl]-2-pyridinecarboxamide], the mortality at 50 ppm in test [3] and in test [4] was at least 80% in each case.
`CNC(=O)COc1cccc(-c2ccc3nn(-c4cccnc4)cc3c2)c1` [Compound 102, N-methyl-2-[3-[2-(3-pyridinyl)-2H-indazol-5-yl]phenoxy]acetamide]: the mortality at 50 ppm was at least 50% in test [2], at least 80% in test [3] and at least 80% in test [4]. Besides, the mortality at 250 ppm in test [2] was at least 50%.
Consider `COC(=O)C(C)(C)NC(=O)c1nnc(-c2ccc3nn(-c4cccnc4)cc3c2)o1` [Compound 105, 2-methyl-N-[[5-[2-(3-pyridinyl)-2H-indazol-5-yl]-1,3,4-oxadiazol-2-yl]carbonyl]alanine methyl ester], for which, in test [4], the mortality at 50 ppm was at least 80%.
Consider `COC(=O)C(C)(C)NC(=O)c1nnc(-c2ccc3nn(-c4cccnc4)cc3c2)s1` [Compound 128, 2-methyl-N-[[5-[2-(3-pyridinyl)-2H-indazol-5-yl]-1,3,4-thiadiazol-2-yl]carbonyl]alanine methyl ester], for which the mortality at 50 ppm in test [4] is at least 80%.
Take `CC(C)(C#N)NC(=O)c1coc(-c2ccc3nn(-c4cccnc4)cc3c2)n1` [Compound 155, N-(1-cyano-1-methylethyl)-2-[2-(3-pyridinyl)-2H-indazol-5-yl]-4-oxazolecarboxamide]: the mortality at 50 ppm in test [3] and in test [4] was at least 80% throughout.
